In patent publication US11795180B2, “Formulation of a pan-JAK inhibitor” (THERAVANCE BIOPHARMA R&D IP, LLC, priority 2020, dated 2023):

Assays:
TYK2 = TYK2 (Homo sapiens, UniProt P29597); settings: cited from earlier work
[1] = Dissolution profiles of tablets with 3% magnesium stearate (blending process, particle size); assay type: physicochemical; settings: tablet with 3% magnesium stearate, Compound I particles blended with a filler, no pre-blending with hydrophobic colloidal silicon dioxide
Procedure: […] The particle size of Compound I was determined by static image analysis.
During manufacturing of certain tablets comprising 0.5-1% magnesium stearate, film formation on tablet punches was observed. The film formed after compression of a few tablets. After extensive investigation, the problem was resolved by increasing the magnesium stearate content in the composition up to 3%. […]
Using this manufacturing procedure, consistently fast dissolution profiles were obtained for different particle sizes of Compound I without leading to the unwanted film formation on tablet punches. Dissolution profiles of tablets manufactured according to this procedure and containing various particle sizes of Compound I are depicted in FIG. 9.

JAK2 = JAK2 (Homo sapiens, UniProt O60674); settings: cited from earlier work
[2] = Drug concentration in stool samples of healthy human subjects; assay type: in vivo
From the text: As described previously in U.S. Pat. No. 9,725,470, the absorption and distribution of Compound I has been extensively profiled in preclinical assays. […] In addition, Compound I is designed to have its effect at the site of action in the gastrointestinal tract.

JAK1 = JAK1 (Homo sapiens, UniProt P23458); settings: cited from earlier work
immunosuppression = assay: Immunosuppression model (systemic functional activity); assay type: in vivo; settings: mice, same dose required to demonstrate efficacy in the oxazolone model
From the text: (§1) Oxazolone-induced colitis is an experimental model that has a histological resemblance to human ulcerative colitis.

[3] = cannulated rats; cited from earlier work
[4] = oral dosing, preclinical species; cited from earlier work
[5] = test system: oxazolone-induced colitis; assay: Oxazolone-induced colitis model; assay type: in vivo; settings: mice
From the text: as §1

JAK3 = biological target: T1, JAK3 (Homo sapiens, UniProt P52333); settings: cited from earlier work
T1 sequence (P52333 1-1124): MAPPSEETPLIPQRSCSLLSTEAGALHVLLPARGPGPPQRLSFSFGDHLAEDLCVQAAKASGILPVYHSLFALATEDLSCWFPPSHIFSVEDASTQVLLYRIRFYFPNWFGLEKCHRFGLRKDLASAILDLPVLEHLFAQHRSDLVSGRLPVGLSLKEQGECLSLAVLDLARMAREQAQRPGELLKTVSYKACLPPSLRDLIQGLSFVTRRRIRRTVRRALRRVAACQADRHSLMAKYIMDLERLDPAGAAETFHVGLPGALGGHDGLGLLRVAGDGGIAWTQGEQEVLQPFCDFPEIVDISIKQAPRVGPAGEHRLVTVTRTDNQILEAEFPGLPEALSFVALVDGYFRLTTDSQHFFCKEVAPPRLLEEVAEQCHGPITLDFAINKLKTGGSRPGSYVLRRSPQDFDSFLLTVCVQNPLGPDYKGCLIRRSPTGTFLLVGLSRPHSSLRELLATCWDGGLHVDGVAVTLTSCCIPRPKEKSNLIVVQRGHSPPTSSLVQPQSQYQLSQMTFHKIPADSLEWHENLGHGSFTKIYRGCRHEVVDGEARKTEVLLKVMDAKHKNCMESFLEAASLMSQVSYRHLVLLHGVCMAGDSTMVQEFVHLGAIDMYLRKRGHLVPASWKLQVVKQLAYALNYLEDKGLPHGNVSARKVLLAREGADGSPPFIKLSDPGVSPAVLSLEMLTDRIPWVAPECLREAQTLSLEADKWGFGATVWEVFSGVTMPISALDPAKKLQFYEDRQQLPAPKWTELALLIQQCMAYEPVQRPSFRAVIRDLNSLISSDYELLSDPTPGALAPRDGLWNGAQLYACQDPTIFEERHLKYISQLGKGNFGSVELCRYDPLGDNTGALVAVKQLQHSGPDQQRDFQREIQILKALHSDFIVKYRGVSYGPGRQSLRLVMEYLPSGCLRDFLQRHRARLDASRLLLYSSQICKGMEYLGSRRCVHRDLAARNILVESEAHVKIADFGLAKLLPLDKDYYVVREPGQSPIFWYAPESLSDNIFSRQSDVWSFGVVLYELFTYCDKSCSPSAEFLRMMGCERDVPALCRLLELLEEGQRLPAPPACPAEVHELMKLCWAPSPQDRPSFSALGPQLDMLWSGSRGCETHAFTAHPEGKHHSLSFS

[6] = rat; cited from earlier work

TYK2, sequence (P29597 whole entry): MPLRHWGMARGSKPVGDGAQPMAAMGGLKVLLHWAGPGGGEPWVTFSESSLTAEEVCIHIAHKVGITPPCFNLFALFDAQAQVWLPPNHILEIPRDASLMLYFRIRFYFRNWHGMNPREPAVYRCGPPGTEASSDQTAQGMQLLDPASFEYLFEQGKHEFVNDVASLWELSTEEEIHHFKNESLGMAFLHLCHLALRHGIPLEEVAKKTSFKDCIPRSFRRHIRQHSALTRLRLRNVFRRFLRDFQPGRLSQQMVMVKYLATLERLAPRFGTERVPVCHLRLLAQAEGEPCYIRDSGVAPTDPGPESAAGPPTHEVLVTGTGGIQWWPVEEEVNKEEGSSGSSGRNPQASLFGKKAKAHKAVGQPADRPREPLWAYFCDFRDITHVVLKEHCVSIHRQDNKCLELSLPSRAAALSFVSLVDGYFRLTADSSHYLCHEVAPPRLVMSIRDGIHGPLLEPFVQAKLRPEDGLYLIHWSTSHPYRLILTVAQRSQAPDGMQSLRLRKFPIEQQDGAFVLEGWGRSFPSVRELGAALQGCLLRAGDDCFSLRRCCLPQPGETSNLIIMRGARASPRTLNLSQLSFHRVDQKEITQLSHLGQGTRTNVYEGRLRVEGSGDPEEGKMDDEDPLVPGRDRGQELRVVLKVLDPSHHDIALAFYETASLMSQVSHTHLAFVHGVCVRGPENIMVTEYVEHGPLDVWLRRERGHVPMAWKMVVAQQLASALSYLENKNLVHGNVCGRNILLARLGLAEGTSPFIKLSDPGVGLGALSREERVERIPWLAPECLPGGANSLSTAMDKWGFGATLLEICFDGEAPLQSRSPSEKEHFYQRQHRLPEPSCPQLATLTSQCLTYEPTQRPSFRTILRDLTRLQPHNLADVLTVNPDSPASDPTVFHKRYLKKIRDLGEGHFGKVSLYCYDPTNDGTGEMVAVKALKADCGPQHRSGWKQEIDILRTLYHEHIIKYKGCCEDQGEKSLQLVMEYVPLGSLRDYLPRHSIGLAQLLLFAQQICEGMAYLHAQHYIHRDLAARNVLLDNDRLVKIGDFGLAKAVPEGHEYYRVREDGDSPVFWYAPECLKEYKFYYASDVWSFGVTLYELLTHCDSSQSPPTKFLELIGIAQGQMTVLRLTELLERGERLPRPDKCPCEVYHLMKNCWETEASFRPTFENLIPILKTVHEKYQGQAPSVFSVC
JAK1, sequence (P23458 whole entry): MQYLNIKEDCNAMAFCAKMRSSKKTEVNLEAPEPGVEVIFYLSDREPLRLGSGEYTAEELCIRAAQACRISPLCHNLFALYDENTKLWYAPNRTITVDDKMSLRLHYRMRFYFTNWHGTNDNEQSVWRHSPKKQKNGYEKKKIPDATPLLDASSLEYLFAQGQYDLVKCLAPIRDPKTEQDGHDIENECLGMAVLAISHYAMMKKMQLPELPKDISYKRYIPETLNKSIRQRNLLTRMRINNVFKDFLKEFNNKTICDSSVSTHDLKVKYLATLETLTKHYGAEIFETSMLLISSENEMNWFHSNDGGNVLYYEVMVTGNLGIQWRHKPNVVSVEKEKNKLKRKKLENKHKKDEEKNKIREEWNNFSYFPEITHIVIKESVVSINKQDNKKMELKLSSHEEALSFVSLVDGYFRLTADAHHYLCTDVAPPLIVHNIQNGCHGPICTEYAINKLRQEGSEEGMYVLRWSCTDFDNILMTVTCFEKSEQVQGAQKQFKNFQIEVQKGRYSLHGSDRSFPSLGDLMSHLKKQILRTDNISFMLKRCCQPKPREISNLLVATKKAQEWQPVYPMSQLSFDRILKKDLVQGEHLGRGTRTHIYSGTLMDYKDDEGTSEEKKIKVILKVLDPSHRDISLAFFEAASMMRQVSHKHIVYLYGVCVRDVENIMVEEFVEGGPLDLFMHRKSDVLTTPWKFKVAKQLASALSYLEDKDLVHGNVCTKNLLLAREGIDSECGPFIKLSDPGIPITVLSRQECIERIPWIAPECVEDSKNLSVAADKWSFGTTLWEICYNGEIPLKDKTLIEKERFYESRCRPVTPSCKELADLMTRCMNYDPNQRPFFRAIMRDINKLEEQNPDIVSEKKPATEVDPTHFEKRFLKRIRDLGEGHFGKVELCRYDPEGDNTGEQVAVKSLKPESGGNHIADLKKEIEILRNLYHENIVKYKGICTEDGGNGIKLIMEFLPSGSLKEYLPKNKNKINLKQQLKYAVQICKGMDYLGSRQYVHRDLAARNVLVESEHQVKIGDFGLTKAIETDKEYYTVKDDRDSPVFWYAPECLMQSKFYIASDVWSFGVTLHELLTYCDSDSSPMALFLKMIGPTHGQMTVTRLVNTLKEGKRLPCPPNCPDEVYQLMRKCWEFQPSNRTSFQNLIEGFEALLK
JAK2, sequence (O60674 whole entry): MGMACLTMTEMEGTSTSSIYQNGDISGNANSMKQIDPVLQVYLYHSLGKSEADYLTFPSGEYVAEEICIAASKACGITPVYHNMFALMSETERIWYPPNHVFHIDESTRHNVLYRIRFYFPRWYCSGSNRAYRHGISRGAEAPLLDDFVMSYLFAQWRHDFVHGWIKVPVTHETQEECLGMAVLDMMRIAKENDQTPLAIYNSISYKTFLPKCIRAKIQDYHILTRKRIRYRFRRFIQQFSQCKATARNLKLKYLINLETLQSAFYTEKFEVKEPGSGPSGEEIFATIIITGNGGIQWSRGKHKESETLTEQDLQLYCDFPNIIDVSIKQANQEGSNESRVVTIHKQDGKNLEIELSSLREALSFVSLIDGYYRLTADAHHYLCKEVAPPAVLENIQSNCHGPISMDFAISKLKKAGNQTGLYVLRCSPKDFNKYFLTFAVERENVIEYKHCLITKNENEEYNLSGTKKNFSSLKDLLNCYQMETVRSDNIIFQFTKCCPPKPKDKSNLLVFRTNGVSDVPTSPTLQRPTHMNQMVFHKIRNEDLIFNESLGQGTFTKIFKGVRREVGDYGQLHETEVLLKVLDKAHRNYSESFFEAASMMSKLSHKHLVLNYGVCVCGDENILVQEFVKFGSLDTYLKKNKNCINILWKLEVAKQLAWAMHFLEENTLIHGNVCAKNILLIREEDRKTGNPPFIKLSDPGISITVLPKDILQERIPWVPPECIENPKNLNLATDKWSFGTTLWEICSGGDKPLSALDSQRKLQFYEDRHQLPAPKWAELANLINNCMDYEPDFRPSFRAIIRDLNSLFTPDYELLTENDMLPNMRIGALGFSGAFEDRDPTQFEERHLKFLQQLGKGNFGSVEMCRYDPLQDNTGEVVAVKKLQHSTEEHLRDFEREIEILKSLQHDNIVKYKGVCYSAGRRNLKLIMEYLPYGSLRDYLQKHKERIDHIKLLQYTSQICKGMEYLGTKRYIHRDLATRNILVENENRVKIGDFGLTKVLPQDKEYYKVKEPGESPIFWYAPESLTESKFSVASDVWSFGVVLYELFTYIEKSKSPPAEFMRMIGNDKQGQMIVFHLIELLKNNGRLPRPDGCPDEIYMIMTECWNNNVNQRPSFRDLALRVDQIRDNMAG

## Cc1cc(Nc2cc3ncccc3c(N[C@@H]3C[C@H]4CC[C@@H](C3)N4CCC#N)n2)n[nH]1 [Compound I, 3-((1R,3s,5S)-3-((7-((5-methyl-1H-pyrazol-3-yl)amino)-1,6-naphthyridin-5-yl)amino)-8-azabicyclo[3.2.1]octan-8-yl)propanenitrile]
TYK2
  Inhibition of TYK2: potent inhibitor
[1]
  Dissolution rate (FIG. 8): reduced dissolution rate
JAK2
  Inhibition of JAK2: potent inhibitor
[2]
  Drug concentration in stool samples: high drug concentration
JAK1
  Inhibition of JAK1: potent inhibitor
immunosuppression
  Effect of immunosuppression: minimal effect of immunosuppression
[3]
  Absorption into plasma at the portal vein: low absorption
[4]
  Exposure throughout the gastrointestinal tract compared with exposure in plasma: significantly higher exposure
[5]
  Activity in the oxazolone-induced colitis model: demonstrated activity
JAK3
  Inhibition of JAK3: potent inhibitor
[6]
  Ratio of exposure in the colon to exposure in plasma: greater than 450
